Reference: US6172087A, “N-oxide of heterocyclic ester, amide, thioester, or ketone hair growth compositions and uses” (GPI NIL Holding, Inc., priority 1998, dated 2001)
“Also recorded” adds a separate entry of the source.

Assays:
[1] = cited from earlier work
C57 black 6 mice = assay: In Vivo Hair Generation Test With C57 Black 6 Mice, Experiment A; conditions: 30 μM, topical, every 48 hours (3 applications), after 6 weeks
Text: Care was taken not to nick or cause abrasion to the underlaying dermal layers. The animals were in anagen growth phase, as indicated by the pinkish color of the skin. […] Hair growth was quantitated by the percent of shaved area covered by new hair growth during this time period.

SMILES	hair growth on topical, but not oral, application (in words) [1]	hair regrowth in the shaved area (in words) (C57 black 6 mice)
C=CC[C@@H]1/C=C(\C)C[C@H](C)C[C@H](OC)[C@H]2O[C@@](O)(C(=O)C(=O)N3CCCC[C@H]3C(=O)O[C@H](/C(C)=C/[C@@H]3CC[C@@H](O)[C@H](OC)C3)[C@H](C)[C@@H](O)CC1=O)[C@H](C)C[C@@H]2OC [FK506]	stimulates hair growth in a dose-dependent manner	–
CCC(C)(C)C(=O)C(=O)N1CCC[C@H]1C(=O)OCCCc1cccnc1 [GPI 1046, 3-(3-pyridyl)-1-propyl(2s)-1-(3,3-dimethyl-1,2-dioxopentyl)-2-pyrrolidinecarboxylate]	–	essentially complete hair regrowth and their shaved areas were indistinguishable from unshaven C57 black 6 mice; also recorded: essentially, complete hair regrowth in the shaved area
